Assay results as given in patent publication EP0620225B1, “Cephalosporin derivatives” (Basilea Pharmaceutica AG, priority 1993, dated 1994).
Converted amounts (≈) assume the structure as drawn. Blank lines part the entries; values can stand above or below the compound they belong to.

Experiments:
[1] = tested on: Acinetobacter sp.51-156; test: Antibacterial spectrum (MIC), agar dilution; type: cell-based; conditions: SP.51156, read-out: MIC
Description: (§1) In vitro activity was determined by minimum inhibitory concentration in a microorganism spectum by the agar dilution method in Mueller Hinton agar.

[2] = tested on: C.freundii 43; test: Antibacterial spectrum (MIC), agar dilution; type: cell-based; conditions: Citrobacter freundii, read-out: MIC
Description: as §1

[3] = tested on: C.freundii 902; test: Antibacterial spectrum (MIC), agar dilution; type: cell-based; conditions: Citrobacter freundii, read-out: MIC
Description: as §1

[4] = tested on: E.cloacae 908R; test: Antibacterial spectrum (MIC), agar dilution; type: cell-based; conditions: Enterobacter cloacae, read-out: MIC
Description: as §1

[5] = tested on: E.cloacae 908SSi; test: Antibacterial spectrum (MIC), agar dilution; type: cell-based; conditions: Enterobacter cloacae, read-out: MIC
Description: as §1

[6] = tested on: E.coli 25922; test: Antibacterial spectrum (MIC), agar dilution; type: cell-based; conditions: Escherichia coli, read-out: MIC
Description: as §1

[7] = tested on: E.faecalis 6; test: Antibacterial spectrum (MIC), agar dilution; type: cell-based; conditions: Enterococcus faecalis, read-out: MIC
Description: as §1

[8] = tested on: H.influenzae 1; test: Antibacterial spectrum (MIC), agar dilution; type: cell-based; conditions: Haemophilus influenzae, read-out: MIC
Description: as §1

[9] = tested on: K.pneumoniae 418; test: Antibacterial spectrum (MIC), agar dilution; type: cell-based; conditions: Klebsiella pneumoniae, read-out: MIC
Description: as §1

[10] = tested on: L.monocytogenes BK23; test: Antibacterial spectrum (MIC), agar dilution; type: cell-based; conditions: Listeria monocytogenes, read-out: MIC
Description: as §1

[11] = tested on: M.catarrhalis RA21; test: Antibacterial spectrum (MIC), agar dilution; type: cell-based; conditions: Moraxella catarrhalis, read-out: MIC
Description: as §1

[12] = tested on: M.morganii 6H-137; test: Antibacterial spectrum (MIC), agar dilution; type: cell-based; conditions: Morganella morganii, 6H137, read-out: MIC
Description: as §1

[13] = tested on: N.meningitidis 69480; test: Antibacterial spectrum (MIC), agar dilution; type: cell-based; conditions: Neisseria meningitidis, read-out: MIC
Description: as §1

[14] = tested on: P.aeruginosa 27853; test: Antibacterial spectrum (MIC), agar dilution; type: cell-based; conditions: Pseudomonas aeruginosa, read-out: MIC
Description: as §1

[15] = tested on: P.mirabilis 2117; test: Antibacterial spectrum (MIC), agar dilution; type: cell-based; conditions: Proteus mirabilis, read-out: MIC
Description: as §1

[16] = tested on: P.vulgaris 1028; test: Antibacterial spectrum (MIC), agar dilution; type: cell-based; conditions: Proteus vulgaris, read-out: MIC
Description: as §1

[17] = tested on: S.agalactiae QK44; test: Antibacterial spectrum (MIC), agar dilution; type: cell-based; conditions: Streptococcus agalactiae, read-out: MIC
Description: as §1

[18] = tested on: S.aureus 6538; test: Antibacterial spectrum (MIC), agar dilution; type: cell-based; conditions: Staphylococcus aureus, read-out: MIC
Description: as §1

[19] = tested on: S.aureus 734 MRSA; test: Antibacterial spectrum (MIC), agar dilution; type: cell-based; conditions: Staphylococcus aureus, read-out: MIC
Description: as §1

[20] = tested on: S.marcescens 69438; test: Antibacterial spectrum (MIC), agar dilution; type: cell-based; conditions: Serratia marcescens, read-out: MIC
Description: as §1

[21] = tested on: S.pneumoniae Q19; test: Antibacterial spectrum (MIC), agar dilution; type: cell-based; conditions: Streptococcus pneumoniae, read-out: MIC
Description: as §1

[22] = tested on: S.pyogenes B15; test: Antibacterial spectrum (MIC), agar dilution; type: cell-based; conditions: Streptococcus pyogenes, read-out: MIC
Description: as §1

[23] = tested on: S.viridans group 016; test: Antibacterial spectrum (MIC), agar dilution; type: cell-based; conditions: Streptococcus viridans, read-out: MIC
Description: as §1

[24] = tested on: X.maltophilia 1AC739; test: Antibacterial spectrum (MIC), agar dilution; type: cell-based; conditions: Stenotrophomonas maltophilia, read-out: MIC
Description: as §1

[25] = tested on: S.aureus MSSA; test: In vitro activity against selected species (MIC50, MIC90, range); type: cell-based; conditions: Staphylococcus aureus, medium MHB (Mueller Hinton Broth)
[26] = tested on: S.pneumoniae PEN-R; test: as above; type: cell-based; conditions: Streptococcus pneumoniae; for MIC: MIC range
[27] = tested on: S.viridans group; test: as above; type: cell-based; conditions: Streptococcus viridans
[28] = tested on: E.faecalis; test: as above; type: cell-based; conditions: Enterococcus faecalis, medium MHA; for MIC: MIC range
Description: as §1

[29] = tested on: S.aureus MRSA; test: as above; type: cell-based; conditions: Staphylococcus aureus, medium MHA (Mueller Hinton Agar) +NaCl; for MIC: MIC range
Description: as §1

[30] = tested on: E.faecium; test: In vitro activity against selected species (MIC50, range); type: cell-based; conditions: Enterococcus faecium, medium MHA
Description: as §1

[31] = tested on: M.catarrhalis; test: In vitro activity against selected species (MIC50, MIC90, range); type: cell-based; conditions: Moraxella catarrhalis, medium IsoB
[32] = tested on: Escherichia coli 25922; test: Efficacy against systemic infections (septicemia) in mice; type: in vivo; conditions: 96 h, survival day 4
Description: (§2) Septicemia was induced in outbred Swiss albino mice (Jbm MoRo [specific pathogen free]; weight 16 to 20 g, Biomedical Research Laboratories, Füllinsdorf, Switzerland). Mice were infected by intraperitoneal injection of diluted overnight cultures of the test organisms. Bacterial challenge doses were 4-10 times the number of organisms required to kill 50% of untreated animals within 48 h. The test compounds were administered p.o. or s.c. 1 and 3 h after the bacterial challenge. To treat the infection with Pseudomonas aeruginosa BA an additional dose was given 5 h after challenge. Control and treatment groups at each dose were composed of five mice each. The 50% effective dose (ED50, in milligrams per kilogram) was calculated by probit analysis as described by Finney (Finney, D.J. 1978, Statistical method in biological assay, 3rd ed. Charles Griffin & Co., Ltd., London), from the survival rates on day 4 after infection.

[33] = tested on: S.aureus Smith; test: as above; type: in vivo; conditions: Staphylococcus aureus, 96 h, sc 1 and 3 h after challenge, survival day 4
Description: as §2

[34] = tested on: E.faecalis; test: In vitro activity against selected species (MIC50, MIC90, range); type: cell-based; conditions: Enterococcus faecalis, medium IsoB
[35] = medium IsoB (Isosensitest Broth)

MIC [1]: 8 µg/mL (≈ 16.2 µM)
MIC [2]: 4 µg/mL (≈ 8.09 µM)
MIC [3]: ≤ 0.06 µg/mL
MIC [4]: 32 µg/mL (≈ 64.7 µM)
MIC [5]: 0.25 µg/mL (≈ 0.506 µM)
MIC [6]: ≤ 0.06 µg/mL
MIC [7]: 1 µg/mL (≈ 2.02 µM)
MIC [8]: 0.12 µg/mL (≈ 0.243 µM)
MIC [9]: ≤ 0.06 µg/mL
MIC [10]: 2 µg/mL (≈ 4.04 µM)
MIC [11]: 16 µg/mL (≈ 32.4 µM)
MIC [12]: ≤ 0.06 µg/mL
MIC [13]: ≤ 0.06 µg/mL
MIC [14]: 32 µg/mL (≈ 64.7 µM)
MIC [15]: ≤ 0.06 µg/mL
MIC [16]: 2 µg/mL (≈ 4.04 µM)
MIC [17]: 0.25 µg/mL (≈ 0.506 µM)
MIC [18]: 0.5 µg/mL (≈ 1.01 µM)
MIC [19]: 16 µg/mL (≈ 32.4 µM)
MIC [20]: 1 µg/mL (≈ 2.02 µM)
MIC [21]: ≤ 0.06 µg/mL
MIC [22]: ≤ 0.06 µg/mL
MIC [23]: 0.5 µg/mL (≈ 1.01 µM)
MIC [24]: > 32 µg/mL
MIC ([25]; MIC range): 1 to 2 µg/mL (≈ 2.02 to 4.04 µM)
MIC50 [25]: 1 µg/mL (≈ 2.02 µM)
MIC90 [25]: 1 µg/mL (≈ 2.02 µM)
MIC [26, 35]: 0.1 to 0.5 µg/mL (≈ 0.202 to 1.01 µM)
MIC ([26]; medium IsoB + 20% serum): 0.12 to 0.5 µg/mL
MIC50 [26, 35]: 0.25 µg/mL (≈ 0.506 µM)
MIC90 [26, 35]: 0.5 µg/mL (≈ 1.01 µM)
MIC50 ([26]; medium IsoB + 20% serum): 0.5 µg/mL
MIC50 [27]: 2 µg/mL (≈ 4.04 µM)
MIC90 [27]: 2 µg/mL (≈ 4.04 µM)
MIC ([27]; MIC range): 0.12 to 8 µg/mL (≈ 0.243 to 16.2 µM)
MIC [28]: 0.5 to 2 µg/mL (≈ 1.01 to 4.04 µM)
MIC50 [28]: ≤ 0.5 µg/mL
MIC90 [28]: 2 µg/mL (≈ 4.04 µM)
MIC [29]: 8 to 16 µg/mL (≈ 16.2 to 32.4 µM)
MIC50 [29]: 16 µg/mL (≈ 32.4 µM)
MIC90 [29]: 16 µg/mL (≈ 32.4 µM)
MIC ([30]; MIC range): 1 to 8 µg/mL (≈ 2.02 to 16.2 µM)
MIC50 [30]: 4 µg/mL (≈ 8.09 µM)
MIC ([31]; MIC range): 1 to 32 µg/mL (≈ 2.02 to 64.7 µM)
MIC50 [31]: 4 µg/mL (≈ 8.09 µM)
MIC90 [31]: 16 µg/mL (≈ 32.4 µM)
MIC ([34]; MIC range): 0.25 to 2 µg/mL (≈ 0.506 to 4.04 µM)
MIC50 [34]: 0.5 µg/mL (≈ 1.01 µM)
MIC90 [34]: 2 µg/mL (≈ 4.04 µM)
Compound: CON1CC/C(=C\C2=C(C(=O)O)N3C(=O)[C@@H](NC(=O)/C(=N\O)c4csc(N)n4)[C@H]3SC2)C1=O [G]
ED50 ([32]; Escherichia coli 25922, po (orally) 1 and 3 h after challenge): ~3 mg/kg
ED50 ([32]; Escherichia coli, E.coli 25922, sc 1 and 3 h after challenge): < 0.1 mg/kg
ED50 [33]: < 1 mg/kg

MIC [1]: 32 µg/mL (≈ 59.2 µM)
MIC [2]: 4 µg/mL (≈ 7.4 µM)
MIC [3]: 0.5 µg/mL (≈ 0.925 µM)
MIC [4]: 16 µg/mL (≈ 29.6 µM)
MIC [5]: 0.5 µg/mL (≈ 0.925 µM)
MIC [6]: 0.25 µg/mL (≈ 0.462 µM)
MIC [7]: 0.25 µg/mL (≈ 0.462 µM)
MIC [8]: 0.5 µg/mL (≈ 0.925 µM)
MIC [9]: 0.12 µg/mL (≈ 0.222 µM)
MIC [11]: > 16 µg/mL
MIC [12]: ≤ 0.06 µg/mL
MIC [13]: 0.12 µg/mL (≈ 0.222 µM)
MIC [14]: 32 µg/mL (≈ 59.2 µM)
MIC [15]: ≤ 0.06 µg/mL
MIC [16]: 2 µg/mL (≈ 3.7 µM)
MIC [17]: 0.25 µg/mL (≈ 0.462 µM)
MIC [18]: 0.5 µg/mL (≈ 0.925 µM)
MIC [19]: 8 µg/mL (≈ 14.8 µM)
MIC [20]: 1 µg/mL (≈ 1.85 µM)
MIC [21]: 0.12 µg/mL (≈ 0.222 µM)
MIC [22]: ≤ 0.06 µg/mL
MIC [23]: 1 µg/mL (≈ 1.85 µM)
MIC [24]: > 32 µg/mL
MIC [28]: 0.5 to 16 µg/mL (≈ 0.925 to 29.6 µM)
MIC50 [28]: 1 µg/mL (≈ 1.85 µM)
MIC90 [28]: 1 µg/mL (≈ 1.85 µM)
MIC [29]: 16 to 32 µg/mL (≈ 29.6 to 59.2 µM)
MIC50 [29]: 16 µg/mL (≈ 29.6 µM)
MIC90 [29]: 16 µg/mL (≈ 29.6 µM)
Compound: Nc1nc(/C(=N/O)C(=O)N[C@@H]2C(=O)N3C(C(=O)O)=C(/C=C4\CCN(c5ccccc5)C4=O)CS[C@H]23)cs1 [H]
ED50 [33]: < 0.5 mg/kg
